Measurements taken from patent US8962600B2, “Neuroprotective compounds and their use” (The Medical College of Wisconsin, Inc., priority 2009, dated 2015).

Legend:
mouse primary microglia = experiment: LPS-induced iNOS activation (nitrite, Griess reagent) in primary microglia; assay type: cell-based; details: diapocynin 10 μM, 30 min pretreatment, LPS 24 hr
Procedure: Primary microglia were obtained from 1-2 day old C57/b16 mouse pups. Upon collection, whole brains were kept in ice-cold DMEM-F12 medium containing 10% FBS, 1× sodium pyruvate, 1× NEAAs, 100 units pen/strep, and Q. After collection, the brains were placed in 0.25% trypsin-EDTA and incubated at 37° C., with gentle shaking every 5-10 min. After 30 min, the trypsin was removed, and the brains are washed in warmed medium twice. After washing, medium was added to the brains, and the brains were homogenized using gentle pipetting, starting with a 25 ml pipette and moving to smaller pipette tips as the brains were broken up. When the brains were sufficiently homogenized to a single-cell suspension, they were filtered with a 70 μm nylon filter, which allowed microglia and astrocytes to be collected. The resultant cell suspension was plated in T-75 flasks and allowed to grow for 12-14 days at 37° C., 5% CO2. Microglia were collected using an Easy Sep Magnet (Stemcell Technologies, Vancouver, BC, Canada) (68-69) and plated on poly-D-lysine-coated plates and allowed to attach for 2-4 days before treatment.
Inducible nitric oxide synthase (iNOS or NOS2) activation was assessed by measuring nitrite levels using Griess reagent in a 96-well format (70-72). […] The plate was shaken on a plate shaker for 10 min before being read in a plate reader at 540 nm.

MPTP-intoxicated mice = experiment: Open Field locomotor activity in MPTP-injected mice; assay type: in vivo, C57BL/6 mice; details: MPTP- and diapocynin-treated mice; 300 mg/kg oral gavage; 5 days after last MPTP injection; 10 min session
Procedure: Six- to 8-week-old C57BL/6 mice weighing 24 to 28 g were housed in standard conditions of constant temperature (22±1° C.), humidity (relative, 30%), and a 12-h light/dark cycle. Mice were allowed free access to food and water. Use of the animals and protocol procedures were approved and supervised by the Committee on Animal Care at Iowa State University (Ames, Iowa). For neurodegeneration studies, mice either received diapocynin (300 mg/kg dose) by oral gavage for 1 day (pre-treatment before MPTP administration), 5 days (co-treatment with MPTP), or 7 days (post-treatment after MPTP).
Two types of behavioral tests were performed including an Open Field experiment for testing locomotor activities and a Rotarod experiment to test coordination of movement of mice after MPTP and diapocynin treatment (48, 56). An Open Field activity monitor (model RXYZCM-16; AccuScan, Columbus, Ohio) was used to measure the spontaneous activity of mice. The activity chamber was 40×40×30.5 cm, made of clear PLEXIGLAS® and covered with a PLEXIGLAS® lid with holes for ventilation. Infrared monitoring sensors were located every 2.54 cm along the perimeter (16 infrared beams along each side) and 2.5 cm above the floor. Two additional sets of 16 sensors were located 8.0 cm above the floor on opposite sides. Data were collected and analyzed by a VersaMax Analyzer (model CDA-8, AccuScan). […]

COc1cc(C(C)=O)cc(-c2cc(C(C)=O)cc(OC)c2O)c1O [diapocynin]
attenuating LPS-induced iNOS activation, compared with apocynin 100 μM (mouse primary microglia): just as effective
horizontal activity (Open Field) (MPTP-intoxicated mice): significantly improved
vertical activity (Open Field) (MPTP-intoxicated mice): significantly improved
